Activity calls are given as the source filed them. The rule behind the calls is not given here.
Experiments:
[1] = Therapeutic index, ratio of IC50 for human NHDF cells to IC50 for human SW620 cells after 72 hrs; format: toxicity; conditions: NHDF cells versus SW620 cells, read-out: Ratio IC50
[2] = Therapeutic index, ratio of IC50 for human NHDF cells to IC50 for human T84 cells after 72 hrs; format: toxicity; conditions: NHDF cells versus T84 cells, read-out: Ratio IC50
HT-29 [3] = assay: Antiproliferative activity against human HT-29 cells at 10 uM after 72 hrs by MTT assay; format: functional, cell-based
HT-29 [4] = assay: Antiproliferative activity against human HT-29 cells assessed as reduction in cell viability after 72 hrs by MTT assay; format: functional, cell-based; conditions: HT-29, 72 h
T84 [5] = assay: Antiproliferative activity against human T84 cells at 10 uM after 72 hrs by MTT assay; format: functional, cell-based
[6] = Therapeutic index, ratio of IC50 for human NHDF cells to IC50 for human RKO cells after 72 hrs; format: toxicity; conditions: NHDF cells versus RKO cells, read-out: Ratio IC50
[7] = Therapeutic index, ratio of IC50 for human NHDF cells to IC50 for human NCI-H508 cells after 72 hrs; format: toxicity; conditions: NHDF cells versus NCI-H508 cells, read-out: Ratio IC50
LoVo [8] = assay: Antiproliferative activity against human LoVo cells at 10 uM after 72 hrs by MTT assay; format: functional, cell-based
RKO [9] = assay: Antiproliferative activity against human RKO cells at 10 uM after 72 hrs by MTT assay; format: functional, cell-based
RKO [10] = assay: Antiproliferative activity against human RKO cells assessed as reduction in cell viability after 72 hrs by MTT assay; format: functional, cell-based
SW-620 [11] = assay: Antiproliferative activity against human SW620 cells assessed as reduction in cell viability after 72 hrs by MTT assay; format: functional, cell-based; conditions: SW-620, 72 h
[12] = Therapeutic index, ratio of IC50 for human NHDF cells to IC50 for human HT-29 cells after 72 hrs; format: toxicity; conditions: NHDF cells versus HT-29 cells, read-out: Ratio IC50
NCI-H508 [13] = assay: Antiproliferative activity against human NCI-H508 cells assessed as reduction in cell viability after 72 hrs by MTT assay; format: functional, cell-based; conditions: NCI-H508, 72 h
[14] = Therapeutic index, ratio of IC50 for human NHDF cells to IC50 for human LoVo cells after 72 hrs; format: toxicity; conditions: NHDF cells versus LoVo cells, read-out: Ratio IC50
NCI-H508 [15] = assay: Antiproliferative activity against human NCI-H508 cells at 10 uM after 72 hrs by MTT assay; format: functional, cell-based
T84 [16] = assay: Antiproliferative activity against human T84 cells assessed as reduction in cell viability after 72 hrs by MTT assay; format: functional, cell-based; conditions: T84, 72 h
SW-620 [17] = assay: Antiproliferative activity against human SW620 cells at 10 uM after 72 hrs by MTT assay; format: functional, cell-based
LoVo [18] = assay: Antiproliferative activity against human LoVo cells assessed as reduction in cell viability after 72 hrs by MTT assay; format: functional, cell-based
NHDF = assay: Cytotoxicity against human NHDF cells assessed as reduction in cell viability; format: cell-based

| Structure (SMILES) | selectivity ratio at 72 h [1] | selectivity ratio at 72 h [2] | Activity (HT-29 [3]) | IC50 (HT-29 [4]) [µM] | Activity (T84 [5]) | selectivity ratio at 72 h [6] | selectivity ratio at 72 h [7] | Activity (LoVo [8]) | Activity (RKO [9]) | IC50 (RKO [10]) [µM] | IC50 (SW-620 [11]) [µM] | selectivity ratio at 72 h [12] | IC50 (NCI-H508 [13]) [µM] | selectivity ratio at 72 h [14] | Activity (NCI-H508 [15]) | IC50 (T84 [16]) [µM] | Activity (SW-620 [17]) | IC50 (LoVo [18]) [µM] | IC50 (NHDF) [µM] |
| --- | --- | --- | --- | --- | --- | --- | --- | --- | --- | --- | --- | --- | --- | --- | --- | --- | --- | --- | --- |
| COc1ccc(/C=C2\CCC/C(=C\c3cc(OC)c(OC)c(OC)c3)C2=O)cc1OC | 3.1 to 4.5 | 3.1 to 4.5 | Active | 1.5 | Active | 3.1 to 4.5 | 3.1 to 4.5 | Active | Active | 1.3 | 1.6 | 3.1 to 4.5 | 1.7 | 3.1 to 4.5 | Active | 1.9 | Active | 1.7 | – |
| COc1cccc(/C=C2\CCC/C(=C\c3cc(OC)c(OC)c(OC)c3)C2=O)c1OC | 3.9 to 7.2 | 3.9 to 7.2 | Active | 3.2 | Active | 3.9 to 7.2 | 3.9 to 7.2 | Active | Active | 3.6 | 4.5 | 3.9 to 7.2 | 4.8 | 3.9 to 7.2 | Active | 3.9 | Active | 2.6 | 18.8 |
| COc1cc(/C=C2\CCC/C(=C\c3ccc(F)c(F)c3)C2=O)cc(OC)c1OC | 2.7 to 6.5 | 2.7 to 6.5 | Active | 1.7 | Active | 2.7 to 6.5 | 2.7 to 6.5 | Active | Active | 2.2 | 4.1 | 2.7 to 6.5 | 4 | 2.7 to 6.5 | Active | 3.5 | Active | 2.3 | 11.1 |
| COc1cc(/C=C2\CCC/C(=C\c3cccc(O)c3)C2=O)cc(OC)c1OC | 3.3 to 5.3 | 3.3 to 5.3 | Active | 7.6 | Active | 3.3 to 5.3 | 3.3 to 5.3 | Active | Active | 6.5 | > 10 | 3.3 to 5.3 | 5.6 | 3.3 to 5.3 | Active | 6.5 | Active | 4.8 | 25.3 |
| COc1ccccc1/C=C1\CCC/C(=C\c2cc(OC)c(OC)c(OC)c2)C1=O | 3.6 to 7.2 | 3.6 to 7.2 | Active | 1.2 | Active | 3.6 to 7.2 | 3.6 to 7.2 | Active | Active | 1.2 | 2 | 3.6 to 7.2 | 2.2 | 3.6 to 7.2 | Active | 2.1 | Active | 1.1 | 7.9 |
| O=c1[nH]cc(F)c(=O)[nH]1 [FLUOROURACIL] | – | – | – | > 10 | – | – | – | – | – | 2.9 | > 10 | – | 8.8 | – | – | > 10 | – | 2.7 | > 50 |
| COc1cc(/C=C2\CCC/C(=C\c3ccccc3F)C2=O)cc(OC)c1OC | 1.8 to 2.7 | 1.8 to 2.7 | Active | 1.6 | Active | 1.8 to 2.7 | 1.8 to 2.7 | Active | Active | 1.5 | 2.1 | 1.8 to 2.7 | 2 | 1.8 to 2.7 | Active | 2.2 | Active | 1.9 | 4 |
| COc1cc(/C=C2\CCC/C(=C\c3ccccc3Br)C2=O)cc(OC)c1OC | 3 to 5 | 3 to 5 | Active | 2.8 | Active | 3 to 5 | 3 to 5 | Active | Active | 2.5 | 3.3 | 3 to 5 | 2.7 | 3 to 5 | Active | 4.2 | Active | 2.8 | 12.4 |
| COc1cc(/C=C2\CCC/C(=C\c3ccc(O)c(O)c3)C2=O)cc(OC)c1OC | 1.1 to 3.3 | 1.1 to 3.3 | Active | 8.5 | Active | 1.1 to 3.3 | 1.1 to 3.3 | Active | Active | 3.1 | 3.2 | 1.1 to 3.3 | 7 | 1.1 to 3.3 | Active | 3.6 | Active | 2.7 | 9 |

Source: ChEMBL document CHEMBL4619709, “Synthesis and in-vitro anti-cancer evaluations of multi-methoxylated asymmetrical diarylpentanoids as intrinsic apoptosis inducer against colorectal cancer” (Bioorg Med Chem Lett, 2020)
